Measurements published in patent US10406185B2, “Cancer therapy with a parvovirus combined with a BCL-2 inhibitor” (DEUTSCHES KREBSFORSCHUNGSZENTRUM, priority 2013, dated 2019).

How the values were obtained:
[1] = test system: human platelets; details: in contrast to ABT-737; cited from earlier work
[2] = test system: U138; assay: LDH assay (cell lysis), U138; format: cell-based, human; details: U138, H-1PV at MOI 5, 0.5 μM inhibitor, 72 h
Experimental: 72 hours after infection, percentage of cells undergoing lysis was measured by LDH assay.

[3] = test system: human hematologic tumour xenograft; details: several human hematologic tumour xenograft models; cited from earlier work
[4] = test system: human glioma cell lines; assay: Sub-G1 apoptotic population by flow cytometry, eight glioma cell lines; format: cell-based; details: H-1PV MOI 0.5-7.5 or 0.25-5 μM ABT-737 alone, 48-96 h
Experimental: The occurrence of DNA fragmentation (sub-G1 cell population) in response to treatment was assessed by propidium iodide staining and flow cytometry in eight human glioma cell lines (a-h). […] Representative histogram plots are shown in the upper panel. […] Columns represent the mean values with relative standard deviation bars (lower panel).
Propidium iodide staining was performed, in order to detect apoptotic cells after treatment. The dye intercalates in the DNA, where it can be measured by flow cytometry. The fluorescence emission is proportional to the DNA content in the cells. Apoptotic cells are characterized by nuclear DNA fragmentation and can be identified by lower fluorescence emission (sub-G1 apoptotic cell population) (Riccardi & Nicoletti, 2006). […]
After 48 (U251, U138, A172, U87, NCH125), 72 (U373) or 96 (U343, NCH37) hours, from infection, supernatant and cells (harvested by trypsinization) were collected and washed with PBS. […] The cell suspension was filtered in a nylon net, and measured on a FACSCalibur (BD Biosciences, San Jose, Calif.). A minimum of 20,000 events were acquired and analyzed with the CellQuest Software (BD Biosciences). Propidium iodide was detected in the FL-2 channel. Untreated cells were used to set the gate for the apoptotic cell fraction, as they show the fluorescence emission of viable non-apoptotic cells. […]

[5] = test system: AsPC-1 xenografts; details: nude rats, treated animals
Experimental: 5×10^6 AsPC-1 cells were subcutaneously injected in the right flank of 5 week-old female nude rats. After 1 week (when tumour reached the volume of 200-400 mm^3), tumour-bearing animals were randomized in to four groups (n=8). […] Tumour volume was measured with a digital calliper on the days indicated and calculated according to the formula: volume […]=width^2× length/2. Rats were sacrificed when the tumour mass reached 4000 mm^3, in keeping with animal welfare regulations. Data shown represents the average values with standard deviation bars.

[6] = test system: human glioma cell lines; details: ABT-737 alone at the dosages of Table 1, 72 h, all glioma lines except U87
Experimental: (§1) LDH assays. […] 72 hours after infection, cell lysis was analyzed by LDH assay as described in the materials and methods section. Columns represent the mean values from 3 replicates with relative standard deviation bars.
(§2) H-1PV cytotoxicity was evaluated by quantification of the enzyme lactate dehydrogenase (LDH), which is released from cells due to loss of membrane integrity (lysis). The assay was performed using the CytoTox 96® Non-Radioactive Cytotoxicity Assay Kit according to the manufacturer's instructions (Promega, Heidelberg, Germany).
(§3) Cells were seeded into 96-well plates usually at the density of 4,000 cells/well in 50 μl of their respective culture media supplemented with 10% FBS. […]
(§4) Briefly, 10 μl of 10× lysis buffer [9% (v/v) Triton X-100 (AppliChem, Darmstadt, Germany) in phosphate buffered saline (PBS)] were added per well in three lines of the plate, which served as 100% cell lysis control. […] The absorbance was measured at a wavelength of 492 nm using the Multiscan ELISA Reader. […] For each condition we calculated the average of the three wells incubated (A) or not (B) with lysis buffer. The average value measured in the wells without cells (background) was subtracted from the values obtained in the wells with the cells.

[7] = test system: small-cell lung carcinoma; details: small-cell lung carcinoma xenograft mouse models; cited from earlier work
[8] = test system: U87; assay: LDH assay (cell lysis), U87; format: cell-based, human; details: U87, ABT-737 alone 5 μM, 72 h
Experimental: as §1, §2, §3, §4

[9] = test system: U373, U138, U343 and NCH125 glioma cell lines; assay: Mitochondrial membrane permeabilization (MitoTracker Red), four glioma cell lines; format: cell-based, human; details: ABT-737 0.5-1 μM or H-1PV MOI 2.5-7.5 alone, 48-96 h
Experimental: 48-96 hours after infection, cells were stained with Mitotracker Red, harvested and analyzed by flow cytometry. The percentage of cells with MMP, was determined using the CellQuest Software. In the upper panel representative histogram plots are shown for each condition. In the lower panel the results of a typical experiment performed in triplicates are shown. Columns represent the mean values with relative standard deviation bars.
The fluorescent dye MitoTracker® Red CMXRos (Molecular Probes, Invitrogen, Darmstadt, Germany) that stains mitochondria in live cells was used to measure the change in MMP. Due to the formation of pores in the mitochondrial membrane, apoptotic cells cannot retain the dye and show a lower fluorescent signal in flow cytometry analysis.
Glioma cells were seeded in 6-well plates at the density of 2.5×10^5 cells/well in 3 ml of cultural medium with the exception of NCH125 cells that were seeded at the density of 6.25×10^4 cells/well. […] Cell suspension was analyzed with a FACSCalibur (BD Biosciences). At least 10,000 events were acquired and analyzed with the CellQuest Software (BD Biosciences). The average of cells undergoing MMP was calculated from three replicates.

[10] = test system: peripheral blood mononuclear cells (PBMCs); details: non malignant PBMCs; read-out: half maximal effective concentration (EC50); cited from earlier work

| Compound | effect on human platelets [1] | increase of H-1PV cytotoxicity in comparison to virus alone [2] [fold] | tumor growth [3] | induction of apoptosis (sub-G1 population), single treatments [4] | loss of weight or other adverse side effects [5] | cytotoxicity of ABT-737 alone [6] | tumour regression [7] | cytotoxicity of ABT-737 alone [8] | effect on MMP, single treatments [9] | EC50 [10] [nM] |
| --- | --- | --- | --- | --- | --- | --- | --- | --- | --- | --- |
| CC1(C)CCC(CN2CCN(c3ccc(C(=O)NS(=O)(=O)c4ccc(NCC5CCOCC5)c([N+](=O)[O-])c4)c(Oc4cnc5[nH]ccc5c4)c3)CC2)=C(c2ccc(Cl)cc2)C1 [ABT-199] | spares human platelets | 1.7 | inhibit tumor growth | – | – | – | – | – | – | – |
| CN(C)CC[C@H](CSc1ccccc1)Nc1ccc(S(=O)(=O)NC(=O)c2ccc(N3CCN(Cc4ccccc4-c4ccc(Cl)cc4)CC3)cc2)cc1[N+](=O)[O-] [ABT-737] | – | 3.8 | – | unable to induce apoptosis efficiently | No loss of weight or other adverse side effects | no apparent cytotoxicity | complete regression | modestcytotoxic effects | almost no effect on the MMP | > 1000 |
